Data reported in the supplement of paper PMC11061612.

Experiments:
[1] = system: DU-145 (Prostate Carcinoma); experiment: combination Emax (second highest fraction inhibited in the dose matrix, 72 h); higher = more inhibition; extreme values may be limits of the assay
Method in brief: (§1)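 Cell lines in DMEM/F12 or RPMI with 10% FBS were plated in 1536-well plates, held 24 hours at 37°C, 5% CO2, then given two-drug dose matrices for 72 hours (DMSO typically 0.2%). Viability was read by CellTiter-Glo 2.0 luminescence and scaled as inhibition from 0 (vehicle wells) to 1 (blank wells). Combination Emax is the second-highest inhibition in the matrix; Bliss excess is observed combination effect minus expected EA + EB − EA·EB, EA and EB being single-agent effects.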

[2] = system: SW872 (Other Solid Carcinomas); experiment: as above
Method in brief: as §1

[3] = system: HCC2998 (Colorectal Carcinoma); experiment: as above
Method in brief: as §1

[4] = system: EFO-21 (Ovarian Carcinoma); experiment: as above
Method in brief: as §1

[5] = system: SW982 (Other Solid Carcinomas); experiment: as above
Method in brief: as §1

[6] = system: NCI-H1838 (Lung Adenocarcinoma); experiment: as above
Method in brief: as §1

[7] = system: G-401 (Other Solid Carcinomas); experiment: as above
Method in brief: as §1

[8] = system: HCC1937 (Breast Carcinoma); experiment: as above
Method in brief: as §1

[9] = system: CADO-ES1 (Ewing's Sarcoma); experiment: as above
Method in brief: as §1

[10] = system: COLO-668 (Small Cell Lung Carcinoma); experiment: as above
Method in brief: as §1

[11] = system: MOG-G-UVW (Low Grade Glioma); experiment: as above
Method in brief: as §1

[12] = system: NCI-H650 (Lung Adenocarcinoma); experiment: as above
Method in brief: as §1

[13] = system: LC-1-sq (Squamous Cell Lung Carcinoma); experiment: as above
Method in brief: as §1

[14] = system: SKN (Other Solid Carcinomas); experiment: as above
Method in brief: as §1

[15] = system: NCI-H1355 (Lung Adenocarcinoma); experiment: as above
Method in brief: as §1

[16] = system: KMRC-1 (Kidney Carcinoma); experiment: as above
Method in brief: as §1

[17] = system: SNU-387 (Hepatocellular Carcinoma); experiment: as above
Method in brief: as §1

[18] = system: NCI-H2122 (Lung Adenocarcinoma); experiment: as above
Method in brief: as §1

[19] = system: SK-LU-1 (Lung Adenocarcinoma); experiment: Bliss excess, mean over the matrix (fraction); higher = more synergy
Method in brief: as §1

[20] = system: SKN (Other Solid Carcinomas); experiment: as above
Method in brief: as §1
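Wherever Bliss excess, mean over the matrix is given: after 72 h of two-drug dosing.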

Compound	combination Emax [1]	combination Emax [2]	combination Emax [3]	combination Emax [4]	combination Emax [5]	combination Emax [6]	combination Emax [7]	combination Emax [8]	combination Emax [9]	combination Emax [10]	combination Emax [11]	combination Emax [12]	combination Emax [13]	combination Emax [14]	combination Emax [15]	combination Emax [16]	combination Emax [17]	combination Emax [18]	Bliss excess [19]	Bliss excess [20]
COc1nnc2ccc(N3CCC(c4ccc(OCCN5CCN(C)C(=O)[C@H]5C)cc4)CC3)nn12 [AZD5153] + C[C@@H]1COCCN1C2=NC(=NC(=C2)C3(CC3)[S@](=N)(=O)C)C4=C5C=CNC5=NC=C4 [AZD6738] (first compound max 1 µM, 7x7, partner max 10 µM)	0.447	0.634	0.926	0.488	0.843	0.441	0.924	0.434	0.88	0.917	0.769	0.51	0.783	0.71	0.639	0.456	0.524	0.981	0.0147	0.0365
C=CCn1c(=O)c2cnc(Nc3ccc(N4CCN(C)CC4)cc3)nc2n1-c1cccc(C(C)(C)O)n1 [AZD1775] + O=C(c1cc(Cc2n[nH]c(=O)c3ccccc23)ccc1F)N1CCN(C(=O)C2CC2)CC1 [Olaparib] (first compound max 1 µM, partner max 10 µM)	0.255	0.336	0.448	0.308	0.787	0.477	0.769	0.497	0.636	0.566	0.864	0.316	0.901	0.412	0.614	0.279	0.567	0.834	-0.0306	-0.0048
COc1nnc2ccc(N3CCC(c4ccc(OCCN5CCN(C)C(=O)[C@H]5C)cc4)CC3)nn12 [AZD5153] + Cc1c2c(nn1C)CSCc1cc(n(C)n1)CSc1cc(c3ccccc3c1)OCCCc1c(C(=O)O)n(C)c3c-2c(Cl)ccc13 [AZD5991] (first compound max 1 µM, 7x7, partner max 1 µM)	0.242	0.697	1	0.414	0.771	0.731	0.956	0.507	0.659	0.564	0.763	0.768	0.771	0.568	0.358	0.322	0.614	0.913	-0.061	-0.058
Cc1c2c(nn1C)CSCc1cc(n(C)n1)CSc1cc(c3ccccc3c1)OCCCc1c(C(=O)O)n(C)c3c-2c(Cl)ccc13 [AZD5991] + CCN(CCO)CCCOc1ccc2c(Nc3cc(CC(=O)Nc4cccc(F)c4)[nH]n3)ncnc2c1 [AZD2811] (first compound max 1 µM, 7x7, partner max 1 µM)	0.23	0.249	0.94	0.343	0.688	0.447	0.615	0.4	0.908	0.235	0.696	0.61	0.428	0.204	0.334	0.194	0.458	0.883	-0.0306	0.0261
COc1nnc2ccc(N3CCC(c4ccc(OCCN5CCN(C)C(=O)[C@H]5C)cc4)CC3)nn12 [AZD5153] + CC1(C)CCC(CN2CCN(c3ccc(C(=O)NS(=O)(=O)c4ccc(NCC5CCOCC5)c([N+](=O)[O-])c4)c(Oc4cnc5[nH]ccc5c4)c3)CC2)=C(c2ccc(Cl)cc2)C1 [Venetoclax] (first compound max 1 µM, 7x7, partner max 1 µM)	0.288	0.561	0.685	0.425	0.767	0.35	0.821	0.344	0.665	0.811	0.715	0.381	0.603	0.594	0.327	0.263	0.434	0.78	-0.118	-0.0295
Cn1cnc2c(F)c(Nc3ccc(Br)cc3Cl)c(C(=O)NOCCO)cc21 [Selumetinib] + C=CCn1c(=O)c2cnc(Nc3ccc(N4CCN(C)CC4)cc3)nc2n1-c1cccc(C(C)(C)O)n1 [AZD1775] (first compound max 10 µM, partner max 1 µM)	0.239	0.29	0.806	0.315	0.633	0.468	0.828	0.562	0.294	0.47	0.72	0.693	0.696	0.353	0.479	0.203	0.544	0.985	0.0035	-0.0294
Cc1c2c(nn1C)CSCc1cc(n(C)n1)CSc1cc(c3ccccc3c1)OCCCc1c(C(=O)O)n(C)c3c-2c(Cl)ccc13 [AZD5991] + C[C@@H]1COCCN1C2=NC(=NC(=C2)C3(CC3)[S@](=N)(=O)C)C4=C5C=CNC5=NC=C4 [AZD6738] (first compound max 1 µM, 7x7, partner max 10 µM)	0.621	0.547	0.994	0.484	0.748	0.72	0.828	0.557	0.989	0.63	0.756	0.352	0.845	0.42	0.652	0.549	0.638	0.957	-0.0032	-0.0121
NC1(C(=O)N[C@@H](CCO)c2ccc(Cl)cc2)CCN(c2ncnc3[nH]ccc23)CC1 [Capivasertib] + C[C@@H]1COCCN1C2=NC(=NC(=C2)C3(CC3)[S@](=N)(=O)C)C4=C5C=CNC5=NC=C4 [AZD6738] (first compound max 10 µM, 7x7, partner max 10 µM)	0.398	0.452	0.814	0.415	0.727	0.494	0.751	0.518	0.729	0.677	0.796	0.406	0.74	0.608	0.773	0.579	0.613	0.974	-0.0162	-0.0477
Cn1cnc2c(F)c(Nc3ccc(Br)cc3Cl)c(C(=O)NOCCO)cc21 [Selumetinib] + CC(C)n1c(=O)n(C)c2cnc3cc(F)c(-c4ccc(OCCCN5CCCCC5)nc4)cc3c21 [AZD1390] (first compound max 10 µM, 7x7, partner max 0.3 µM)	0.16	0.203	0.719	0.205	0.266	0.237	0.367	0.208	0.175	0.421	0.346	0.243	0.184	0.113	0.172	0.165	0.284	0.864	-0.02	-0.0616
COc1nnc2ccc(N3CCC(c4ccc(OCCN5CCN(C)C(=O)[C@H]5C)cc4)CC3)nn12 [AZD5153] + CCN(CCO)CCCOc1ccc2c(Nc3cc(CC(=O)Nc4cccc(F)c4)[nH]n3)ncnc2c1 [AZD2811] (first compound max 1 µM, 7x7, partner max 1 µM)	0.265	0.578	0.752	0.425	0.807	0.441	0.806	0.383	0.248	0.264	0.802	0.443	0.609	0.608	0.509	0.316	0.487	0.853	-0.0549	-0.0711
CCN(CCO)CCCOc1ccc2c(Nc3cc(CC(=O)Nc4cccc(F)c4)[nH]n3)ncnc2c1 [AZD2811] + O=C(c1cc(Cc2n[nH]c(=O)c3ccccc23)ccc1F)N1CCN(C(=O)C2CC2)CC1 [Olaparib] (first compound max 1 µM, 7x7, partner max 10 µM)	0.199	0.172	0.247	0.203	0.658	0.275	0.496	0.238	0.531	0.178	0.668	0.164	0.305	0.127	0.318	0.19	0.17	0.437	-0.0373	-0.0168
CCN(CCO)CCCOc1ccc2c(Nc3cc(CC(=O)Nc4cccc(F)c4)[nH]n3)ncnc2c1 [AZD2811] + C[C@@H]1COCCN1C2=NC(=NC(=C2)C3(CC3)[S@](=N)(=O)C)C4=C5C=CNC5=NC=C4 [AZD6738] (first compound max 1 µM, 7x7, partner max 10 µM)	0.596	0.571	0.777	0.45	0.71	0.643	0.536	0.47	0.843	0.644	0.783	0.117	0.823	0.393	0.679	0.566	0.494	0.902	-0.0586	-0.0432
C=CCn1c(=O)c2cnc(Nc3ccc(N4CCN(C)CC4)cc3)nc2n1-c1cccc(C(C)(C)O)n1 [AZD1775] + C[C@@H]1COCCN1C2=NC(=NC(=C2)C3(CC3)[S@](=N)(=O)C)C4=C5C=CNC5=NC=C4 [AZD6738] (first compound max 1 µM, partner max 10 µM)	0.604	0.83	0.938	0.543	0.807	0.733	0.793	0.68	0.901	0.893	0.922	0.329	0.938	0.506	0.777	0.669	0.7	0.961	-0.0774	-0.0185
